Source: patent US20130231303A1, “5-HALOGENOPYRAZOLE(THIO)CARBOXAMIDES” (Bayer Intellectual Property GmbH, priority 2010, published 2013)

Tests used:
[1] = test system: Sphaerotheca fuliginea; experiment: Sphaerotheca test (cucumber)/preventive; assay type: in vivo; conditions: preventive, 500 ppm, evaluated 7 days after inoculation
Description: Then the plants are placed in a greenhouse at approximately 23° C. and a relative atmospheric humidity of approximately 70%.

[2] = test system: Puccinia recondita; experiment: Puccinia test (wheat)/preventive; assay type: in vivo; conditions: preventive, 500 ppm, evaluated 7-9 days after inoculation
Description: (§1) The plants remain for 48 hours in an incubation cabinet at 22° C. and a relative atmospheric humidity of 100%. Then the plants are placed in a greenhouse at a temperature of approximately 20° C. and a relative atmospheric humidity of approximately 80%.

[3] = test system: Blumeria graminis f.sp. hordei; experiment: Blumeria test (barley)/preventive; assay type: in vivo; conditions: preventive, 500 ppm, evaluated 7 days after inoculation
Description: After the spray coating has been dried, the plants are dusted with spores of Blumeria graminis f.sp. hordei. The plants are placed in the greenhouse at a temperature of approximately 18° C. and a relative atmospheric humidity of approximately 80% to promote the development of mildew pustules.

[4] = test system: Pyricularia oryzae; assay type: in vivo; conditions: rice, protective, 250 ppm, evaluated 5 days after inoculation
[5] = test system: Pyrenophora teres; experiment: Pyrenophora test (barley)/preventive; assay type: in vivo; conditions: preventive, 500 ppm, evaluated 7-9 days after inoculation
Description: as §1

[6] = test system: Alternaria solani; experiment: Alternaria test (tomato)/preventive; assay type: in vivo; conditions: preventive, 500 ppm, evaluated 7 days after inoculation
Description: The plants remain for one day in an incubation cabinet at approximately 22° C. and a relative atmospheric humidity of 100%. Then the plants are placed in an incubation cabinet at approximately 20° C. and a relative atmospheric humidity of 96%.

[7] = test system: Rhizoctonia solani; experiment: Rhizoctonia test (rice)/protective; assay type: in vivo; conditions: protective, 250 ppm, evaluated 4 days after inoculation
Excerpt: Rhizoctonia Test (Rice)/Protective

[8] = test system: Cochliobolus miyabeanus; experiment: Cochliobolus test (rice)/protective; conditions: protective, 250 ppm, evaluated 4 days after inoculation
Description: • Solvent: 28.5 parts by weight of acetone • Emulsifier: 1.5 part by weight of alkylaryl polyglycol ether
1 day after the treatment, the plants are inoculated with an aqueous spore suspension of Cochliobolus miyabeanus. The plants are then placed in a greenhouse at a relative atmospheric humidity of 100% and a temperature of 25° C.
Evaluation is carried out 4 days after the inoculation.

[9] = test system: Fusarium nivale (var. majus); experiment: Fusarium nivale (var. majus)-test (wheat)/preventive; assay type: in vivo; conditions: preventive; for Efficacy: evaluated 5 days after inoculation
Description: After the spray coating has been dried, the plants are slightly injured by using a sandblast and afterwards they are sprayed with a conidia suspension of Fusarium nivale (var. majus). The plants are placed in the greenhouse under a translucent incubation cabinet at a temperature of approximately 10° C. and a relative atmospheric humidity of approximately 100%.

[10] = test system: Botrytis cinerea; experiment: Botrytis test (beans)/preventive; assay type: in vivo; conditions: preventive, 100 ppm, lesion size 2 days after inoculation
Description: Botrytis Test (Beans)/Preventive
• Solvent: 24.5 parts by weight of acetone • 24.5 parts by weight of N,N-dimethylformamide • Emulsifier: 1 part by weight of alkylaryl polyglycol ether
After the spray coating has dried on, 2 small pieces of agar covered with growth of Botrytis cinerea are placed on each leaf. The inoculated plants are placed in a darkened chamber at 20° C. and a relative atmospheric humidity of 100%.
2 days after the inoculation, the size of the lesions on the leaves is evaluated.

[11] = test system: Uromyces appendiculatus; experiment: Uromyces test (beans)/preventive; assay type: in vivo; conditions: preventive, 100 ppm, evaluated 10 days after inoculation
Excerpt: Uromyces Test (Beans)/Preventive

[12] = test system: Venturia inaequalis; experiment: Venturia test (apples)/preventive; assay type: in vivo; conditions: preventive, 100 ppm, evaluated 10 days after inoculation
Description: Venturia Test (Apples)/Preventive […] After the spray coating has dried on, the plants are inoculated with an aqueous conidia suspension of the causal agent of apple scab (Venturia inaequalis) and then remain for 1 day in an incubation cabinet at approximately 20° C. and a relative atmospheric humidity of 100%.

[13] = test system: Phakopsora pachyrhizi; experiment: Phakopsora test (soybeans)/protective; assay type: in vivo; conditions: protective, 250 ppm, evaluated 11 days after inoculation
Excerpt: Phakopsora Test (Soybeans)/Protective

[14] = logP by HPLC on reversed-phase column (EEC Directive 79/831 Annex V.A8); assay type: physicochemical; conditions: HPLC, reversed-phase C 18, 40° C., 0.1% aqueous formic acid and acetonitrile gradient
Description: In table 1, the logP values were determined in accordance with EEC Directive 79/831 Annex V.A8 by HPLC (High Performance Liquid Chromatography) on a reversed-phase column (C 18), using the method described below: Temperature: 40° C.; Mobile phases: 0.1% aqueous formic acid and acetonitrile; linear gradient from 10% acetonitrile to 90% acetonitrile. Calibration was carried out using unbranched alkan-2-ones (comprising 3 to 16 carbon atoms) with known logP values (determination of the logP values by the retention times using linear interpolation between two successive alkanones). lambda-max-values were determined using UV-spectra from 200 nm to 400 nm and the peak values of the chromatographic signals.

Compound: CC(C)CC(C)c1sccc1NC(=O)c1c(C(F)F)nn(C)c1Cl (stereo not shown) [Example 3]
- Efficacy [1]: 96%
- Efficacy [2]: 100%
- Efficacy [3]: 100%
- Efficacy [4]: 97%
- Efficacy [5]: 100%
- Efficacy [6]: 100%
- Efficacy [7]: 100%
- Efficacy [8]: 97%
- Efficacy ([9]; 250 ppm): 86%
- Efficacy ([9]; 500 ppm): 100%
- protection ([9]; dose of 250 ppm and 500 ppm (text summary of table G2)): at least 80%
- Efficacy [10]: 98%
- Efficacy [11]: 100%
- Efficacy [12]: 100%
- Efficacy [13]: 98%
- logP [14]: 4.19
